Reference: the supplement of paper PMC12137928
Counter-ions that a name gives are not always drawn.

Test system: HCT116
Conditions: 72 h
Summary of the method: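 Each well of the 1536-well plates received 250 HCT116 cells, which attached over 5 h. Luminescence was measured with CellTiter-Glo, scaled with vehicle as 0% and positive control as -100%, and pattern-corrected. A four-parameter Hill fit yielded IC50 and maximal efficacy.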

| Structure (SMILES) | IC50 cell viability (ICRF193 0 nM) [µM] | IC50 cell viability (ICRF193 200 nM) [µM] |
| --- | --- | --- |
| NC[C@@H]1CC[C@@H](N)[C@@H](O[C@H]2[C@H](O)[C@@H](O[C@H]3O[C@H](CO)[C@@H](O)[C@H](N)[C@H]3O)[C@H](N)C[C@@H]2N)O1 [DIBEKACIN] | > 45.8 | > 45.8 |
| CC(C)(C)c1ccc2c(S(=O)(=O)O)c(C(C)(C)C)ccc2c1 [DIBUNATE SODIUM] | > 45.8 | > 45.8 |
| CCN(CC)C(=O)N1CCN(C)CC1 [DIETHYLCARBAMAZINE CITRATE] | > 45.8 | > 45.8 |
| CN[C@@H]1[C@H](O[C@H]2[C@H](O[C@H]3[C@H](O)[C@@H](O)[C@H](NC(=N)N)[C@@H](O)[C@@H]3NC(=N)N)O[C@@H](C)[C@]2(O)CO)O[C@@H](CO)[C@H](O)[C@H]1O [DIHYDROSTREPTOMYCIN [5mM]] | > 45.8 | > 45.8 |
| CN[C@H]1C(=O)N[C@@H]2Cc3ccc(cc3)Oc3cc4cc(c3O[C@@H]3O[C@H](C(=O)O)[C@@H](O)[C@H](O)[C@H]3NC(=O)CCCCCCCCC(C)C)Oc3ccc(cc3Cl)[C@@H](O)[C@@H]3NC(=O)[C@H](NC(=O)[C@@H]4NC(=O)[C@@H](NC2=O)c2cc(cc(O)c2Cl)Oc2cc1ccc2O)c1ccc(O)c(c1)-c1c(O[C@H]2O[C@H](CO)[C@@H](O)[C@H](O)[C@@H]2O)cc(O)cc1[C@@H](C(=O)NCCCN(C)C)NC3=O [Dalbavancin] | > 45.8 | > 45.8 |
| O=C1c2cccc(O)c2C(=O)c2c(O)cccc21 [Danthron] | > 45.8 | > 45.8 |
| O=C1CN(/N=C/c2ccc(-c3ccc([N+](=O)[O-])cc3)o2)C(=O)N1 [Dantrolene sodium] | > 45.8 | > 45.8 |
| Cc1ccccc1N1CCN(CCc2nnc3n2CCCC3)CC1 [Dapiprazole hydrochloride] | > 45.8 | > 45.8 |
| Nc1ccc(S(=O)(=O)c2ccc(N)cc2)cc1 [Dapsone] | > 45.8 | > 45.8 |
| C[N+](C)(C)CCCCCCCCCC[N+](C)(C)C [Decamethonium bromide] | > 45.8 | > 45.8 |
| Nc1ncn([C@H]2C[C@H](O)[C@@H](CO)O2)c(=O)n1 [Decitabine] | > 45.8 | > 45.8 |
| C[C@H](CCC(=O)O)[C@H]1CC[C@H]2[C@@H]3C(=O)C[C@@H]4CC(=O)CC[C@]4(C)[C@H]3CC(=O)[C@]12C [Dehydrocholic acid] | > 45.8 | > 45.8 |
| C[C@]12CC[C@H](OS(=O)(=O)O)CC1=CC[C@@H]1[C@@H]2CC[C@]2(C)C(=O)CC[C@@H]12 [Dehydroepiandrosterone Sulfate (sodium salt)] | > 45.8 | > 45.8 |
| C[C@]12CC[C@H](O)CC1=CC[C@@H]1[C@@H]2CC[C@]2(C)C(=O)CC[C@@H]12 [Dehydroepiandrosterone] | > 45.8 | > 45.8 |
| C[C@]1(COc2ccc(N3CCC(Oc4ccc(OC(F)(F)F)cc4)CC3)cc2)Cn2cc([N+](=O)[O-])nc2O1 [Delamanid] | > 45.8 | > 45.8 |
| CC(=O)OCC(=O)[C@H]1CC[C@H]2[C@@H]3CCC4=CC(=O)CC[C@]4(C)[C@H]3CC[C@]12C [Deoxycorticosterone acetate] | > 45.8 | > 45.8 |

| Structure (SMILES) | IC50 cell viability (ICRF193 0 nM) [µM] | IC50 cell viability (ICRF193 200 nM) [µM] |
| --- | --- | --- |
| CN1C(=O)[C@]23C[C@H]4C(C)(C)[C@]5(CNc6c5ccc5c6OC=CC(C)(C)O5)C[C@@]41CN2CC[C@@]3(C)O [Derquantel] | > 45.8 | > 45.8 |
| Clc1ccc2c(c1)CCc1cccnc1C2=C1CCNCC1 [Desloratadine] | > 45.8 | > 45.8 |
| N=C(N)NCCC[C@@H](NC(=O)[C@@H]1CCCN1C(=O)[C@@H]1CSSCCC(=O)N[C@@H](Cc2ccc(O)cc2)C(=O)N[C@@H](Cc2ccccc2)C(=O)N[C@@H](CCC(N)=O)C(=O)N[C@@H](CC(N)=O)C(=O)N1)C(=O)NCC(N)=O [Desmopressin (Acetate)] | > 45.8 | > 45.8 |
| C#C[C@]1(O)CC[C@H]2[C@@H]3CCC4=CCCC[C@@H]4[C@H]3C(=C)C[C@@]21CC [Desogestrel] | > 45.8 | > 45.8 |
| CC1(C)O[C@@H]2C[C@H]3[C@@H]4CCC5=CC(=O)C=C[C@]5(C)[C@H]4[C@@H](O)C[C@]3(C)[C@]2(C(=O)CO)O1 [Desonide] | > 45.8 | > 45.8 |
| C[C@@H]1C[C@H]2[C@@H]3CCC4=CC(=O)C=C[C@]4(C)[C@@]3(F)[C@@H](O)C[C@]2(C)[C@H]1C(=O)CO [Desoximetasone] | > 45.8 | > 45.8 |
| CC(C)(C)C(=O)OCC(=O)[C@H]1CC[C@H]2[C@@H]3CCC4=CC(=O)CC[C@]4(C)[C@H]3CC[C@]12C [Desoxycorticosterone Pivalate] | > 45.8 | > 45.8 |
| Cc1cccc(Cc2c[nH]cn2)c1C [Detomidine hydrochloride] | > 45.8 | > 45.8 |
| C[C@@H]1C[C@H]2[C@@H]3CCC4=CC(=O)C=C[C@]4(C)[C@@]3(F)[C@@H](O)C[C@]2(C)[C@@]1(O)C(=O)COP(=O)(O)O [Dexamethasone 21-phosphate disodium salt] | > 45.8 | > 45.8 |
| CC(=O)OCC(=O)[C@@]1(O)[C@H](C)C[C@H]2[C@@H]3CCC4=CC(=O)C=C[C@]4(C)[C@@]3(F)[C@@H](O)C[C@@]21C [Dexamethasone acetate] | > 45.8 | > 45.8 |
| C[C@@H]1C[C@H]2[C@@H]3CCC4=CC(=O)C=C[C@]4(C)[C@@]3(F)[C@@H](O)C[C@]2(C)[C@@]1(O)C(=O)COC(=O)c1ccncc1 [Dexamethasone isonicotinate] | > 45.8 | > 45.8 |
| C[C@@H]1C[C@H]2[C@@H]3CCC4=CC(=O)C=C[C@]4(C)[C@@]3(F)[C@@H](O)C[C@]2(C)[C@@]1(O)C(=O)CO [Dexamethasone] | > 45.8 | > 45.8 |
| CN(C)CC[C@@H](c1ccc(Cl)cc1)c1ccccn1 [Dexchlorpheniramine hydrochloride] | > 45.8 | > 45.8 |
| Cc1cccc([C@H](C)c2c[nH]cn2)c1C [Dexmedetomidine] | > 45.8 | > 45.8 |
| CC(C)(CO)[C@@H](O)C(=O)NCCCO [Dexpanthenol] | > 45.8 | > 45.8 |

Further lines, results first:

| IC50 cell viability (ICRF193 0 nM) [µM] | IC50 cell viability (ICRF193 200 nM) [µM] | Structure (SMILES) |
| --- | --- | --- |
| > 45.8 | > 45.8 | CC/C=C\C/C=C\C/C=C\C/C=C\C/C=C\C/C=C\CCC(=O)O [DOCONEXENT] |
| > 45.8 | > 45.8 | Cc1cc(CC(C)C[Si](C)(O[Si](C)(C)C)O[Si](C)(C)C)c(O)c(-n2nc3ccccc3n2)c1 (stereo not given) [DROMETRIZOLE TRISILOXANE] |
| > 45.8 | > 45.8 | CCNC(=O)NCCCOc1cccc(CN2CCCCC2)c1 [Dalcotidine] |
| > 45.8 | > 45.8 | CCN(CC)CCS(=O)(=O)[C@@H]1CCN2C(=O)c3coc(n3)CC(=O)C[C@H](O)/C=C(C)/C=C/CNC(=O)/C=C/[C@@H](C)[C@@H](C(C)C)OC(=O)[C@@H]12 [Dalfopristin] |
| > 45.8 | > 45.8 | CN1C[C@@H]2C[C@H]1CN2c1cc2c(cc1F)c(=O)c(C(=O)O)cn2C1CC1 [Danofloxacin] |
| > 45.8 | > 45.8 | CCOc1ccc(Cc2cc([C@@H]3O[C@H](CO)[C@@H](O)[C@H](O)[C@H]3O)ccc2Cl)cc1 [Dapagliflozin] |
| > 45.8 | > 45.8 | CCCCCCCCCC(=O)N[C@@H](Cc1c[nH]c2ccccc12)C(=O)N[C@H](CC(N)=O)C(=O)N[C@@H](CC(=O)O)C(=O)N[C@@H]1C(=O)NCC(=O)N[C@@H](CCCN)C(=O)N[C@@H](CC(=O)O)C(=O)N[C@H](C)C(=O)N[C@@H](CC(=O)O)C(=O)NCC(=O)N[C@H](CO)C(=O)N[C@@H]([C@H](C)CC(=O)O)C(=O)N[C@@H](CC(=O)c2ccccc2N)C(=O)O[C@@H]1C [Daptomycin] |
| > 45.8 | > 45.8 | CCCCCCCCCC(=O)O [Decanoic acid] |
| > 45.8 | > 45.8 | CCCCCCCCCCOc1cc2c(O)c(C(=O)OCC)cnc2cc1OCC [Decoquinate] |
| > 45.8 | > 45.8 | Cc1c(O)c(=O)ccn1C [Deferiprone] |
| > 45.8 | > 45.8 | CC(=O)OCC(=O)[C@@]12N=C(C)O[C@@H]1C[C@H]1[C@@H]3CCC4=CC(=O)C=C[C@]4(C)[C@H]3[C@@H](O)C[C@@]12C [Deflazacort] |
| > 45.8 | > 45.8 | Nc1nc(-n2cc(C(=O)O)c(=O)c3cc(F)c(N4CC(O)C4)c(Cl)c32)c(F)cc1F [Delafloxacin (meglumine)] |
| > 45.8 | > 45.8 | CCOC(=O)[C@H](CCc1ccccc1)N[C@@H](C)C(=O)N(CC(=O)O)C1Cc2ccccc2C1 [Delapril hydrochloride] |
| > 45.8 | > 45.8 | CC(C)Nc1cccnc1N1CCN(C(=O)c2cc3cc(NS(C)(=O)=O)ccc3[nH]2)CC1 [Delavirdine] |
| > 45.8 | > 45.8 | CN(CCCCCCCCCCN(C)C(=O)Oc1cccc([N+](C)(C)C)c1)C(=O)Oc1cccc([N+](C)(C)C)c1 [Demecarium bromide] |
| > 45.8 | > 45.8 | CC[N+](CC)(CC(=O)Nc1c(C)cccc1C)Cc1ccccc1 [Denatonium benzoate] |
| > 45.8 | > 45.8 | CCCCNc1ccc(C(=O)OCCN(CC)CC)cc1 [Depolipon] |
| > 45.8 | > 45.8 | COc1ccc(-c2cc(C(F)F)nn2-c2ccc(S(N)(=O)=O)cc2)cc1F [Deracoxib] |
| > 45.8 | > 45.8 | CCCCCCCCCCCCCCCC(=O)OCC(=O)[C@@]1(O)[C@H](C)C[C@H]2[C@@H]3CCC4=CC(=O)C=C[C@]4(C)[C@@]3(F)[C@@H](O)C[C@@]21C [Dexamethasone 21-Palmitate] |
